Data: EP0287819A1, “5-(phenyl or phenoxyalkyl)-3-(2-furanyl or 2-thienyl)-3-(1H-imidazol-1-ylmethyl)-2-methylisoxazolidines” (FISONS CORPORATION, priority 1987, dated 1988)
In brackets after ≈: the same amount, converted by molar mass.

Assays:
Experiment in all cases: in vitro antifungal activity, broth and agar testing techniques
Type in all cases: cell-based
Epidermophyton floccosum = tested on: Epidermophyton floccosum
Excerpt: (§1) The compounds of this invention are useful as antifungal agents.

Trichophyton tonsurans = tested on: Trichophyton tonsurans
Excerpt: as §1

[1] = tested on: Trichophyton schoenleinii
Excerpt: as §1

Candida albicans = details: for inhibitory activity: in vitro; for MIC: one range stated jointly for Examples 5, 6 and 10 and the three fungi, read-out: minimum inhibitory concentration MIC
Excerpt: as §1

[2] = tested on: Trichophyton mentagrophytes
Excerpt: as §1

Trichophyton rubrum = details: for activity: in vitro; for MIC: one range stated jointly for Examples 5, 6 and 10 and the three fungi, read-out: minimum inhibitory concentration MIC
Excerpt: as §1

Aspergilius fumigatus = details: for activity: in vitro; for MIC: one range stated jointly for Examples 5, 6 and 10 and the three fungi, read-out: minimum inhibitory concentration MIC
Excerpt: as §1

SMILES | MIC (Trichophyton rubrum) [mg/L] | MIC (Aspergilius fumigatus) [mg/L] | MIC (Candida albicans) [mg/L] | inhibitory activity (Epidermophyton floccosum) | inhibitory activity (Trichophyton tonsurans) | inhibitory activity [1] | inhibitory activity (Candida albicans) | inhibitory activity [2] | activity (Trichophyton rubrum) | activity (Aspergilius fumigatus)
CN1OC(c2ccc(Cl)cc2)CC1(Cn1ccnc1)c1ccco1 (single isomer, unassigned) [Example 1, 5-(4-Chlorophenyl)-3-(2-furanyl)-3-(1H-imidazol-1-ylmethyl) -2-methylisoxazolidine] | – | – | – | good to moderate | good to moderate | good to moderate | good to moderate | good to moderate | – | –
CN1OC(COc2ccc(Cl)cc2)CC1(Cn1ccnc1)c1ccco1 (single isomer, unassigned) [Example 3, 5-(4-Chlorophenoxymethyl)-3-(2-furanyl)-3-(1H-imidazol-1-ylmethyl)-2-methylisoxazolidine] | – | – | – | good to moderate | good to moderate | good to moderate | good to moderate | good to moderate | – | –
CN1OC(c2ccccc2)CC1(Cn1ccnc1)c1cccs1 (single isomer, unassigned) [Example 5, 3-(1H-Imidazol-1-ylmethyl)-2-methyl-5-phenyl-3-(2-thienyl)isoxazolidine] | 0.2 to 70 (≈ 0.615 to 215 µM) | 0.2 to 70 (≈ 0.615 to 215 µM) | 0.2 to 70 (≈ 0.615 to 215 µM) | – | – | – | good to moderate | – | good to moderate | good to moderate

The next lines start with results.

MIC (Trichophyton rubrum) [mg/L] | MIC (Aspergilius fumigatus) [mg/L] | MIC (Candida albicans) [mg/L] | SMILES | inhibitory activity (Epidermophyton floccosum) | inhibitory activity (Trichophyton tonsurans) | inhibitory activity [1] | inhibitory activity (Candida albicans) | inhibitory activity [2] | activity (Trichophyton rubrum) | activity (Aspergilius fumigatus)
0.2 to 70 (≈ 0.556 to 195 µM) | 0.2 to 70 (≈ 0.556 to 195 µM) | 0.2 to 70 (≈ 0.556 to 195 µM) | CN1OC(c2ccc(Cl)cc2)CC1(Cn1ccnc1)c1cccs1 (single isomer, unassigned) [Example 6, 5-(4-Chlorophenyl)-3-(1H-imidazol-1-ylmethyl)-2-methyl-3-(2-thienyl)isoxazolidine] | – | – | – | good to moderate | – | good to moderate | good to moderate
0.2 to 70 (≈ 0.519 to 182 µM) | 0.2 to 70 (≈ 0.519 to 182 µM) | 0.2 to 70 (≈ 0.519 to 182 µM) | Cc1ccc(SCC2CC(Cn3ccnc3)(c3cccs3)N(C)O2)cc1 (single isomer, unassigned) [Example 10, 3-(1H-Imidazol-1-ylmethyl)-2-methyl-5-[[(4-methylphenyl)thio]methyl]-3-(2-thienyl)isoxazolidine] | – | – | – | good to moderate | – | good to moderate | good to moderate
